SMILES strings stand for the structures. Where a SMILES comes first, the peptide text is derived from it.

These results are taken from patent US12559863B2, “Macrocyclic modulators of disease associated protein misfolding and aggregation” (RESQ BIOTECH, priority 2017, dated 2026).

In one assay the target is T1, Aβ42-GFP (Homo sapiens, UniProt P05067).
T1 construct: a chimeric fusion of the human Aβ(1-42) peptide (Aβ42) with GFP; expressed in transfected cells; host or cells: E. coli BL21(DE3)
Briefly: High-throughput sequencing of pSICLOPPS vectors isolated after bacterial sorting for enhanced Aβ42-GFP fluorescence. In outline:
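Peptide inserts recovered from repeatedly sorted high-GFP clones were sequenced on Ion Torrent, excluding stop-codon-containing reads. Sorting used BL21(DE3) cells carrying pETAβ42-GFP plus the tetra-, penta- and hexapeptide pSICLOPPS library. Peptide production was induced with 0.002% L-arabinose and the reporter with 0.1 mM IPTG at OD600 ~0.5, at 37° C.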

For assay [1], the system named is C. elegans strain CL2006 (human Aβ42 in body wall muscle cells). In words: Paralysis assay in C. elegans CL2006 fed peptide-producing E. coli OP50. In kind it is in vivo, Caenorhabditis elegans. The following applies: fed throughout lifespan with E. coli OP50 producing the peptide. The source says: To evaluate the protective effects of the selected cyclic peptides against Aβ aggregation and toxicity in vivo, the inventors employed two established models of AD in the nematode worm Caenorhabditis elegans. The conservation of genetic and metabolic pathways between C. elegans and mammals, in combination with its completely characterized nervous and muscular system, its easy visualization and simple manipulation, has nominated C. elegans as an excellent model for neurodegenerative diseases including AD, while chemical screening against Aβ-induced toxicity in C. elegans is increasingly used in AD drug discovery. The inventors performed initially a paralysis assay in CL2006, a strain where human Aβ42 is constitutively expressed in the body wall muscle cells of the animals and Aβ aggregate formation is accompanied by adult-onset paralysis. […] To evaluate the state of Aβ aggregation in vivo, we utilized the strain CL2331, which expresses an Aβ3-42-GFP fusion in its body wall muscle cells upon temperature up-shift.

Assay [2] concerns C. elegans strain CL4176 (human Aβ42, heat-inducible). Briefly: Paralysis assay in C. elegans CL4176. The settings on record: synthetic AβC5-34 10 μM, AβC5-116 5 μM; temperature up-shift. The assay is classed as in vivo, Caenorhabditis elegans. The procedure:
We followed standard procedures for C. elegans strains maintenance at 16° C. The following strains were used: CL2179: dvIs179 [myo-3p::GFP::3′UTR(long)+rol-6(su1006)] (available on the world wide web at: cgc.cbs.umn.edu/strain.php?id=26134); CL2331: dvIs37 [myo-3p::GFP::Aβ(3-42)+rol-6(su1006)] (available on the world wide web at: cgc.cbs.umn.edu/strain.php?id=26135); CL4176: smg-1(cc546) I; dvIs27 [myo-3::Aβ(1-42)-let 3′UTR(pAF29); pRF4 (rol-6(su1006)] (available on the world wide web at: cgc.cbs.umn.edu/strain.php?id=7663).
For treatments with synthetic cyclic peptides, nematodes were exposed to the indicated AβC5-34 and AβC5-116 concentrations per NGM plate. Stock solutions of the two chemically synthesized pure peptides were obtained after dissolution in DMSO and stored at −20° C. The appropriate amount of compound or DMSO (control cultures) was added onto an E. coli OP50 bacterial lawn. […] Treatment and control plates were handled, scored and assayed in parallel.
Synchronized CL4176 animals (150-300 animals per condition) were transferred to NGM plates containing synthetic AβC5-34, AβC5-116 or 0.26% DMSO at 16° C. for 48 h before transgene induction via temperature up-shift to 25° C. […] Treatment and control plates were handled, scored and assayed in parallel. […] Nematodes were scored as paralyzed upon failure to move their half end-body upon prodding. […]

T1 sequence (P05067 672-713 limits assumed): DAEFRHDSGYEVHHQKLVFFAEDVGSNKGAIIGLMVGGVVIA

Consider `C[C@@H]1NC(=O)[C@H](CO)NC(=O)[C@H]([C@@H](C)O)NC(=O)[C@@H]2CCCN2C(=O)[C@H](CO)NC1=O` [AβC5-34, cyclo-SASPT] (cyclo(ASPTS)), for which, on Aβ42-GFP (Table 2), the “Reads/Total SASPT-like reads (%)” value is on record as 97.349%, the “Reads/Total pentapeptide reads (%)” value is listed as 0.632% and the “Reads/Total peptide reads (%)” value came to 0.567%. Moreover, the Number of reads at Aβ42-GFP (Table 2, after second round of sorting) was 25673. For the same molecule, in assay [1], the “appearance of paralysis phenotype, CL2006” value is recorded as “significant delay”. In addition, the “appearance of paralysis phenotype, CL4176” value in assay [2] is “significant delay”.

With `C[C@@H]1NC(=O)[C@H]([C@@H](C)O)NC(=O)[C@H](CCCNC(=N)N)NC(=O)[C@H](CC(=O)O)NC(=O)[C@H](Cc2ccccc2)NC1=O` [AβC5-116, cyclo-TAFDR] (cyclo(AFDRT)), the “Reads/Total TXXXR reads (%)” value on Aβ42-GFP (after the second round of bacterial sorting, relative to total TXXXR reads) was 0.223%. For the same molecule, the “Reads/Total pentapeptide reads (%)” value on Aβ42-GFP (after the second round of bacterial sorting, relative to total pentapeptide reads) is 0.105%. The “Reads/Total peptide reads (%)” value on Aβ42-GFP (after the second round of bacterial sorting, relative to total peptide reads) worked out at 0.094%. For the same molecule, the Number of reads on Aβ42-GFP (high-throughput sequencing of isolated pSICLOPPS-NuX1X2X3-X5 vectors after the second round of bacterial sorting for enhanced Aβ42-GFP fluorescence, selected cyclo-TXXXR pentapeptides) is given as 4,243. In addition, the “appearance of paralysis phenotype, CL2006” value in assay [1] is on record as “significant delay”. Moreover, the “appearance of paralysis phenotype, CL4176” value in assay [2] is on record as “significant delay”.
